4 compounds from patent US20070004623A1, “Use of hydroxylated amino acids for treating diabetes” (Innodia Inc., priority 2003, published 2007) can be followed below.

Assay type in all cases: cell-based
In assay [1] the test system is INS-1 cells. Kind of assay: glucose-dependent insulin secretion in INS-1 cells, ID 1101 with Glibenclamide. The following applies: 4.5 mM glucose, 1 hour. How it is done: The optical isomer 2S,3R,4S of 4-hydroxyisoleucine (ID 1101) was tested in a blinded manner, alone and in combination with Glibenclamide, to determine the insulinotropic effect on INS-1 cells. Briefly, the cells were plated at a density of 2×10^5 in 12 well plates and incubated for 2 days in RPMI with 10% fetal calf serum and 11 mM glucose. The medium was removed on the third day post-plating and replaced with RPMI containing 3 mM glucose with 10% fetal calf serum. The cells were incubated for an additional 24 hours. On the fourth day post-plating, the medium was removed and replaced with Krebs-Ringers bicarbonate buffer containing 2 mM glucose. The cells were incubated for 30 minutes. The buffer was removed and replaced with Krebs-Ringers bicarbonate buffer with 4.5 mM glucose, containing ID 1101 at 0.1 mM, Glibenclamide alone at 10-10 mM or 10^−11 mM, or a combination of the 2 compounds. The cells were incubated for 1 hour. Basal insulin secretion was determined by incubating the cells in the presence of buffer with 2 mM glucose. The presence of glucose at 4.5 mM stimulated insulin secretion and served as the positive control.

Assay [2] has as its system INS-1 cells. Kind of assay: glucose-dependent insulin secretion in INS-1 cells, ID 1101 with Exendin-4. The following applies: 4.5 mM glucose, 1 hour. The procedure:
The optical isomer 2S,3R,4S of 4-hydroxyisoleucine (ID 1101) was tested alone and in combination with Exendin-4, to determine the insulinotropic effect on INS-1 cells. Briefly, the cells were plated at a density of 2×10^5 in 12 well plates and incubated for 2 days in RPMI with 10% fetal calf serum and 11 mM glucose. The medium was removed on the third day post-plating and replaced with RPMI containing 3 mM glucose with 10% fetal calf serum. The cells were incubated for an additional 24 hours. On the fourth day post-plating, the medium was removed and replaced with Krebs-Ringers bicarbonate buffer containing 2 mM glucose. The cells were incubated for 30 ninutes. The buffer was removed and replaced with Krebs-Ringers bicarbonate buffer with 4.5 mM glucose, containing ID 1101 at 0.01 or 0.05 mM, Exendin-4 alone at 10^−9 mM or 10^−10 mM, or a combination of the 2 compounds. The cells were incubated for 1 hour. Basal insulin secretion was determined by incubating the cells in the presence of buffer with 2 mM glucose. The effect of glucose at 4.5 mM served as the control.

Assay [3] has as its system differentiated 3T3-L1 adipocyte cells. Kind of assay: uptake of 3H-deoxy-glucose by differentiated 3T3-L1 adipocyte cells. As to conditions: last 30 minutes of 5 hour starvation, control cells 2 pmol/mg/minute. The procedure: Briefly, 3T3-L1 adipocyte cells (ATCC; Cl-173) were cultured in 12 well tissue culture plates for 3 days in order to reach confluence ([…] al., “Analysis of insulin-stimulated glucose uptake in differentiated 3T3-L1 adipocytes,” Diabetes Mellitus: Methods and Protocols, ([…]., 2003, pages 97-103). The culture medium was removed and replaced with differentiation-medium (Green et al., Cell 3:127-133, 1974; Madsen et al., Biochem. J. 375:539-549, 2003), and then the cells were incubated for an additional 9 days. The state of differentiation was confirmed by visual examination. Cell starvation was conducted for 5 hours by replacing the differentiation medium with medium lacking fetal calf serurn. During the starvation period, the cells were exposed ID 1101 (0.5 or 1.0 mM), for 0.5, 1, 2, 4, or 5 hours. The cells were exposed to insulin (0.0167 U/ml; Sigma; Cat. No. 15534) for the last 0.5 hour of the starvation period, either alone or in combination ID 1101. The cells were washed, and then fresh medium containing 16 μM ^3H-Deoxy-D-glucose (0.5 μCi/ml) and 10 μM 2-Deoxy-D-glucose was added and the cells were incubated for 10 minutes. Glucose uptake was stopped by washing the cells with ice cold PBS. The cells were lysed and specific activity in the lysate was determined relative to background uptake of ^3H-deoxy-glucose. […]

For the compound `C[C@@H]([C@H](C)O)[C@H](N)C(=O)O` [ID 1101, 4-hydroxyisoleucine], the insulin secretion result in assay [1] (ID 1101 0.1 mM) and in assay [2] (ID 1101 0.01 or 0.05 mM) was “stimulated insulin secretion above background levels” throughout. Also, the “stimulation of glucose uptake above the background level” value in assay [3] (ID 1101 0.5 or 1.0 mM as sole treatment) is reported as “approximately 5 pmol/mg/minute”. As for insulin, the “stimulation of glucose uptake above the background level” value in assay [3] (insulin 0.0167 U/ml as sole treatment) is reported as “approximately 5 pmol/mg/minute”. Take `COc1ccc(Cl)cc1C(=O)NCCc1ccc(S(=O)(=O)NC(=O)NC2CCCCC2)cc1` [Glibenclamide]: the results for the insulin secretion result in assay [1] (Glibenclamide 10^−10 mM) and in assay [1] (Glibenclamide 10^−11 mM) were “showed a stimulatory effect” and “not”, respectively. On to Exendin-4 [reference compound], for which the insulin secretion entry in assay [2] (Exendin-4 10^−9 and 10^−10 mM) was “did not show a stimulatory effect”.
